In assay [1] the test system is patients with a progressive form of multiple sclerosis. Nature of the assay: Clinical cases: patients with progressive multiple sclerosis treated with biotin. Type of assay: in vivo, human. The protocol:
Three patients with a progressive form of multiple sclerosis received biotin. […]
A person, without any particular personal history. […] Treatment with interferon Ib (betaferon) began in February 2008.
Three Solumedrol infusions were carried out in September 2010 and then 4 infusions between 8 and 11 Aug.
Treatment with biotin was then introduced on 6 Mar. 2012 at the dose of 100 mg/day until March 30 and then 200 mg/day from April 6 to 6 May 2012 then 300 mg/day from 6 May 2012 to 7 Jun. 2012. Two complete ophthalmological examinations were carried out during this period of time: a first on 30 Mar. […]

The test system of assay [2] is multiple sclerosis. The note with it: attacks less numerous and less severe, improvement of lesions visible by MRI; cited from earlier work.
Where [3] appears, read: patient 1, after six months of treatment.
Setting [4] is: patient 1, biotin 100 mg three times a day, three months.

Here are results for three compounds from patent US10201528B2, “Method of treating multiple sclerosis” (Assistance Publique Hopitaux De Paris, priority 2012, dated 2019).

Entries after “also recorded” stand apart in the source; their conditions may differ.

Turning to `C[C@H]1C[C@@H]2[C@H]([C@@H](O)C[C@@]3(C)[C@H]2CC[C@]3(O)C(=O)COC(=O)CCC(=O)O)[C@@]2(C)C=CC(=O)C=C12` [Solumedrol], in assay [1] (patient 2, July 2008, infusions), the diplopia-type attack result is recorded as “regressive”. For the same compound, the “progressive decrease in visual acuity” value in assay [1] (patient 2, three infusions September 2010 and 4 infusions 8-11 Aug. 2011, before biotin) was “without any effect”. Besides, the “evolvement of left homonymous lateral hemianopsia” value in assay [1] (patient 3, 2004, after 3 infusions, symptomology subsequently reappeared) was “initially been favourable”.
`O=C(O)CCCC[C@@H]1SC[C@@H]2NC(=O)N[C@@H]21` [biotin]: in assay [1] (setting [3]), the “brain MRI spectro: choline peak and choline/creatine ratio” value was “clear decrease”; the “visual evoked potentials: P100 wave on the right” value is on record as “beginnings of a P100 wave on the right”. Besides, the “visual evoked potentials: latency of left P100 wave” value in assay [1] (patient 1, biotin 100 mg three times a day, after six months of treatment) stood at 111.8 ms. Also, in assay [1] (setting [4]), the “MRI and brain MRI spectro” value was “unchanged”; the balance result is recorded as “more assured”; the “visual evoked potentials: P100 wave on the left” value was “reappearance of a P100 wave on the left”; the “visual evoked potentials: P100 wave on the right” value is “no response was noted on the right”. Further, in assay [1] (setting [4]), the “visual evoked potentials: latency of left P100 wave” value came to 126.5 ms. In assay [1] (patient 1, biotin 100 mg three times a day, three months later (before treatment 2/10 on the left)), the “visual acuity on the left” value is reported as 2/10. The “visual acuity on the right” value in assay [1] (patient 1, biotin 100 mg three times a day, three months later (before treatment could only count fingers on the right)) is given as 5/10. Besides, the “visual evoked potentials: P100 wave” value in assay [1] (patient 1, biotin increased to 600 mg/day, after nine months of treatment) was “bilateral P100 wave was noted”. Also, the motor problems entry in assay [1] (patient 1, discussion) is “corrected and were stabilized”. The “balance between beginning of treatment and last visit” value in assay [1] (patient 1, long-term treatment) was “also remained stable”. In addition, the “visual acuity between beginning of treatment and last visit” value in assay [1] (patient 1, long-term, 300 mg/day for 15 months then 100 mg/day for 9 months) is on record as “remained stable”. In addition, the “visual acuity compared with examination before treatment” value in assay [1] (patient 2, biotin 100 mg/day from 6 Mar. 2012, examination 30 Mar. 2012) is “no improvement”. For the same compound, the “visual field (automated campimetry): homonymous lateral hemianopsia” value in assay [1] (patient 3, biotin 100 mg/day begun 12 Apr. 2012, examination 30 Jun. 2012) was “improvement in the visual field in the upper left quadrant; also recorded: clear improvement”. Also, the “time to improvement after introduction of the treatment” value in assay [1] (the three patients) is “within three months”.
In the case of glatiramer acetate, the “efficacy in multiple sclerosis” value in assay [2] is reported as “proven to be effective”.
